The source of these data is PubChem BioAssay (NCI).

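Growth conditions: 96-well plates. Treatment: test compound, 48 hours, 5 concentrations. Analysis: linear interpolation between bracketing concentrations; unreached endpoints set to highest concentration. The concentration for 50% growth inhibition is given as GI50. TGI is the concentration that stops growth completely.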 Where only a bound is given, the exact number is not on record here.

Test systems include HCT-15 colon; UACC-62 melanoma; NCI-H522 lung; BT-549 breast; SW-620 colon; CAKI-1 renal; OVCAR-3 ovarian; K-562 leukemia; SN12C renal; A498 renal.
Holding throughout (assay): DTP human tumour cell line panel, 48 h

The TGI is the concentration at which net growth stops. Lower therefore signals greater sensitivity of the cells. Regarding `CCCCCC(C(O)C#N)C(O)(C(F)(F)F)C(F)(F)F` (stereo unspecified), the TGI in the test with HCT-15 colon, with UACC-62 melanoma, in the test on NCI-H522 lung, in the test on BT-549 breast, in the test on SW-620 colon and with CAKI-1 renal was more than 10 µM throughout. For the same molecule, the TGI in the test on OVCAR-3 ovarian, with K-562 leukemia and in the test on SN12C renal was more than 10 µM each time.

Take `COc1ccc2c(c1)[C@@]13CCN4CC5=CCO[C@H]6CC(=O)N2[C@H]1[C@H]6[C@H]5C[C@H]43`: the TGI in the test with HCT-15 colon, with UACC-62 melanoma, in the test with NCI-H522 lung, in the test with BT-549 breast, with SW-620 colon and in the test with CAKI-1 renal was more than 100 µM each time. Further, the TGI in the test on OVCAR-3 ovarian, in the test with A498 renal and with SN12C renal was more than 100 µM throughout.

What is called GI50 is the concentration at which growth is held to half of that of the control. As for `CCCNCc1cc(C)cc2c1nc(N1CCNCC1)n2Cc1cc(C)c(F)c(C)c1`, the GI50 in the test on HCT-15 colon is 4.46 µM; with UACC-62 melanoma, 1.87 µM; in the test with NCI-H522 lung it was 2.09 µM; in the test with BT-549 breast, 12.3 µM; with SW-620 colon it was 1.96 µM; in the test on CAKI-1 renal, 14.4 µM. Besides, the GI50 in the test with OVCAR-3 ovarian was 3.71 µM; in the test with K-562 leukemia it was 1.9 µM; in the test with SN12C renal, 7.57 µM. Also, the concentration for total growth inhibition (TGI) worked out at 16.4 µM in the test on HCT-15 colon; 3.66 µM with UACC-62 melanoma; 5.67 µM in the test with NCI-H522 lung; 26.1 µM with BT-549 breast; 4.34 µM with SW-620 colon; 27.6 µM in the test on CAKI-1 renal. The TGI in the test with OVCAR-3 ovarian amounted to 13.5 µM; in the test on K-562 leukemia, 3.78 µM; in the test with SN12C renal, 21.6 µM.

Turning to `COC(=O)NC/C=C\c1nc(CC/C=C\C(=O)OC2CC3CC(=O)O[C@@H](/C=C/CC(C)C)C[C@@H]4CCC(C)C(C[C@@H](OC)CC(C2)O3)O4)co1` (stereo partly specified), the GI50 was less than 0.01 µM with HCT-15 colon; 0.412 µM in the test with UACC-62 melanoma; less than 0.01 µM with NCI-H522 lung; 9.93 µM in the test with BT-549 breast; less than 0.01 µM with SW-620 colon; less than 0.01 µM in the test on CAKI-1 renal. In addition, in the test with K-562 leukemia, the GI50 is less than 0.01 µM. In addition, the TGI with HCT-15 colon is 20.7 µM; with UACC-62 melanoma, 25.6 µM; with NCI-H522 lung it was 87.7 µM; in the test with BT-549 breast it was more than 100 µM; in the test with SW-620 colon, more than 100 µM; in the test on CAKI-1 renal, 70.6 µM. This molecule had a concentration for total growth inhibition (TGI) with K-562 leukemia of 12.2 µM.

In the case of `Clc1ccc(OCc2nnc3n2N=C(c2ccc(Cl)cc2Cl)CS3)c(Cl)c1`, the GI50 is 12.7 µM in the test on HCT-15 colon; 14.1 µM in the test with UACC-62 melanoma; 14.5 µM in the test with NCI-H522 lung; 22.4 µM in the test on BT-549 breast; 31.3 µM in the test on SW-620 colon; 26.6 µM with CAKI-1 renal. Moreover, the GI50 with OVCAR-3 ovarian was 21.2 µM; in the test on K-562 leukemia, 33.4 µM; in the test on SN12C renal, 14.2 µM. In addition, the total growth inhibition concentration (TGI) is 33.2 µM in the test with HCT-15 colon; 32.2 µM in the test on UACC-62 melanoma; 37.6 µM in the test with NCI-H522 lung; 59.4 µM with BT-549 breast; more than 100 µM in the test with SW-620 colon; 83 µM in the test with CAKI-1 renal. Moreover, the TGI in the test with OVCAR-3 ovarian was 73.1 µM; with K-562 leukemia, more than 100 µM; with SN12C renal, 32.3 µM.

As for `CCN(CCO)CCNc1ccc(C)c2sc3cc(Cl)ccc3c(=O)c12`, the GI50 was 0.538 µM with HCT-15 colon; 1.73 µM with UACC-62 melanoma; 1.56 µM in the test on NCI-H522 lung; 3.78 µM in the test on BT-549 breast; 1.27 µM in the test with SW-620 colon; 1.72 µM in the test on CAKI-1 renal. The GI50 with OVCAR-3 ovarian is 1.72 µM; in the test on K-562 leukemia, 0.32 µM; with SN12C renal, 1.47 µM. The TGI worked out at 1.85 µM with HCT-15 colon; 3.31 µM in the test on UACC-62 melanoma; 3.21 µM in the test with NCI-H522 lung; 14 µM with BT-549 breast; 2.77 µM in the test with SW-620 colon; 4.03 µM with CAKI-1 renal. The results for the TGI in the test with OVCAR-3 ovarian, in the test with K-562 leukemia and in the test with SN12C renal were 4.13 µM, 1.42 µM and 3.11 µM, respectively.

Consider `CCCCCC(=O)Oc1ccc(/C(=C(\C)c2ccc(OC)cc2)c2ccc(OCCN3CCCCC3)cc2)cc1`, for which the GI50 with HCT-15 colon was 2.92 µM; in the test on UACC-62 melanoma it was 7.19 µM; in the test on NCI-H522 lung, 14.4 µM; in the test on BT-549 breast, 10.7 µM; in the test on SW-620 colon, 3.59 µM; in the test on OVCAR-3 ovarian it was 11.6 µM. Moreover, the GI50 in the test on A498 renal was 13.5 µM; with K-562 leukemia, 3.16 µM; in the test with SN12C renal, 10.8 µM. The TGI in the test with HCT-15 colon was determined as 10.2 µM; in the test with UACC-62 melanoma it was 20 µM; with NCI-H522 lung, 30.5 µM; in the test on BT-549 breast, 23.2 µM; in the test with SW-620 colon, 14 µM; with OVCAR-3 ovarian, 25.2 µM. Further, the TGI in the test on A498 renal is 26.5 µM; with K-562 leukemia, 16.2 µM; in the test with SN12C renal, 23.5 µM.

In the case of `O=C(Nc1cc(-c2ccccc2)[nH]n1)c1ccc(Cl)cc1`, the GI50 in the test with HCT-15 colon was 4.14 µM; in the test with UACC-62 melanoma it was more than 100 µM; in the test with BT-549 breast, more than 100 µM; in the test with CAKI-1 renal it was 2.66 µM; with OVCAR-3 ovarian it was more than 100 µM; in the test on A498 renal it was 1.27 µM. Besides, the GI50 in the test on SN12C renal is more than 100 µM. In addition, the TGI with HCT-15 colon, with UACC-62 melanoma, in the test with BT-549 breast, with CAKI-1 renal, with OVCAR-3 ovarian and in the test with A498 renal was more than 100 µM throughout. The molecule further registered a TGI in the test with SN12C renal of more than 100 µM.

For the molecule `COC(=O)C(Cc1ccccc1)N/C=C\C(=O)c1ccc(Cl)cc1` (stereo unspecified), the GI50 in the test on HCT-15 colon was 23.6 µM; with UACC-62 melanoma, 19.7 µM; in the test with NCI-H522 lung, 32.5 µM; in the test on BT-549 breast it was 28.1 µM; with SW-620 colon it was 31.7 µM; in the test with CAKI-1 renal, 21.3 µM. Also, the GI50 in the test on A498 renal was 31.1 µM; in the test on K-562 leukemia, 54.7 µM; in the test with SN12C renal it was 16.7 µM. For the same molecule, the TGI was 59.3 µM with HCT-15 colon; 45.8 µM in the test on UACC-62 melanoma; more than 100 µM in the test with NCI-H522 lung; more than 100 µM with BT-549 breast; 97.2 µM with SW-620 colon; 44.4 µM in the test with CAKI-1 renal. In addition, the TGI in the test on A498 renal is 75.8 µM; in the test with K-562 leukemia it was more than 100 µM; with SN12C renal, 40.5 µM.
